Results reported in a melting point compilation (Tetko et al.; mined from patent text by program, amines drawn as free bases though some values may be those of a salt).

For `Cc1nc(NC(=O)c2cnn3c(C(F)(F)F)cc(-c4ccc(Cl)cc4)nc23)sc1S(=O)(=O)NC(C)(C)CO`, the melting point was 274 °C. For `CC(C)(C)c1nc(Cl)c2ccccc2c1-c1ccccc1`, the melting point was 139 to 140 °C. For `COc1ccccc1CN1Cc2cc(OC)c(OCc3ccccc3)cc2C(OC)C1` (configuration not stated), the melting point was 101 to 102 °C. Work on `CN(C)CCN1C(=O)N2[C@H](c3cccc(O)c3)c3[nH]c4ccc(Cl)cc4c3C[C@@]2(C)C1=O` (racemic) yielded a melting point of 283 to 286 °C. Work on `Cc1ccc(S(=O)(=O)Nc2ccc(Cl)cc2[N+](=O)[O-])cc1` yielded a melting point of 110 to 111 °C. Compound `O=C(O)c1ccc(-n2nc(-c3ccccc3O)nc2-c2ccccc2O)cc1` has a melting point of 255 to 262 °C. `Cc1c(C)c2c(c(C)c1Br)C(c1ccccc1)CO2` (configuration not stated) showed a melting point of 107 to 108 °C. `CCOC(=O)c1ncn2c1CN=C(c1ccccc1Cl)c1cc(Cl)ccc1-2` gave a melting point of 215 to 220 °C. `COc1ccccc1CCCNc1ccc(C(=O)O)cc1` gave a melting point of 155 to 157 °C. In the case of `O=C1N(Cc2ccc(OC(F)(F)F)cc2)C(=NCC(F)(F)F)SCN1c1ccccc1`, the melting point was 54 to 56 °C. In the case of `O=S(=O)(O)CCCCCCN1CCN(Cc2ccccc2)CC1`, the melting point was 228 to 230 °C. `CCCCCCOc1ccc(CC2SC(=O)NC2=O)cc1` (configuration not stated) gave a melting point of 52 to 54 °C. With `C=CC1CN(c2ncc(C(=O)N(CCCCC)c3cccc(C(F)(F)F)c3)c(N)n2)C(=O)N1` (configuration not stated) the melting point was 135 to 137 °C. Work on `C=CCOCc1csc2c(=O)c(C(=O)NCc3ccc(Cl)cc3)cn(C)c12` yielded a melting point of 156 to 158 °C. In the case of `CCCOc1ccc(S(C)(=O)=O)cc1-c1nc2c(CC)nn(C[C@@H]3CCCN3C)c2c(=O)[nH]1`, the melting point was 211 to 215 °C. `O=C(Cl)c1c(Oc2ccccc2)cccc1Oc1ccccc1` showed a melting point of 72 to 73 °C. In the case of `Cc1cc(C)c(NC(=O)C2c3ccccc3COc3ccc(C)cc32)c(C)c1` (configuration not stated), the melting point was 148 to 149 °C. Work on `CCOP(=O)(CC(=O)Nc1cc2c(Nc3ccc(Cl)c(Cl)c3)ncnc2cn1)OCC` yielded a melting point of 121 to 124 °C. Work on `CO/C=C(\Oc1cc(C#C[Si](C)(C)C)ccc1C)C(=O)OC` yielded a melting point of 125 °C. For `CCc1c(Cl)c(CC)c(-c2c(O)c(C)nn(C)c2=O)c(CC)c1Cl`, the melting point was 266 to 267 °C. `Cc1nn(CCCCO)c(-c2ccc(F)cc2)c1-c1ccc2c(c1)NC(=O)CO2` gave a melting point of 194 to 196 °C. With `O=C(O)C(O)c1csc2ccccc12` (configuration not stated) the melting point was 89 to 91 °C. `CC(c1ccc(O)cc1)(c1ccc(O)cc1)c1ccc2ccccc2c1` gave a melting point of 185 to 186 °C. Work on `COC(=O)c1ccc(OC)c(OC(C)(C)C)c1` yielded a melting point of 98 to 100 °C. `COc1ccc(CN(C)CCc2ccc(NC(=O)c3cccc4c(=O)c5cccc(OC)c5sc34)cc2)cc1OC` showed a melting point of 151 °C. Compound `CC(C)(C)OC(=O)NCCc1cccc(OCCC2Oc3ccccc3N(Cc3ccc(Cl)cc3)C2=O)c1` (configuration not stated) has a melting point of 97 to 98.5 °C. `CCCc1c(OCCCOc2ccc(C(=O)O)cc2)ccc(C(C)=O)c1O` showed a melting point of 180 to 183 °C. `Cn1cc(-c2cccc(C(F)(F)F)c2)c(=O)c(-c2cccc(S(C)(=O)=O)c2)c1` showed a melting point of 180 to 183 °C. In the case of `CC(C)c1nc(CCOC(N)=O)n(Cc2ccncc2)c1Sc1cc(Cl)cc(Cl)c1`, the melting point was 189 to 191 °C. With `COC(=O)c1ccc(C(F)F)nc1C` the melting point was 135 to 136 °C. For `O=C(O)CCCCCCCCCCCCCCCCCCCCCN1C(=O)C=CC1=O`, the melting point was 106 °C. `CCCc1c(OC2CCCOC2)ccc2c(O)cc(=O)oc12` (configuration not stated) gave a melting point of 163 to 165 °C. In the case of `Nc1nc(-c2ccc(Cl)cc2)c(CCC(=O)O)s1`, the melting point was 116 to 118 °C. For `CCCc1c(OCCCOc2ccc(C(=O)CCC(=O)O)c(F)c2)ccc(C(C)=O)c1O`, the melting point was 113 to 118 °C. Compound `CC(=O)N1CCCCc2ccc(C(=O)CCN(C)C)cc21` has a melting point of 68 to 70 °C. `COC(=O)c1cc(Br)c(OC)cc1O` showed a melting point of 122 to 124 °C. With `CCOC(=O)NC(=S)Nc1cc(NC(=O)OC)ccc1NC(=O)CN(C)C` the melting point was 171 to 172 °C. `Cc1ccccc1-c1nc2c(s1)C(S(=O)(=O)Cc1ccccc1)Cc1c(OCC(=O)O)cccc1-2` (configuration not stated) showed a melting point of 192 to 193 °C. In the case of `CC(C)S(=O)(=O)c1ccccc1S(N)(=O)=O`, the melting point was 150 to 153 °C. `O=C(O)Cc1ccc2c(c1)sc1cccc(Cl)c12` showed a melting point of 203 to 206 °C. `Cc1cc(O)c(Oc2ccccc2C#N)cc1Br` showed a melting point of 99 to 101 °C. `COc1ccc2cccc(C=O)c2c1` gave a melting point of 61 to 63 °C. Work on `NC(=O)c1cn(Cc2ccccc2Cl)nn1` yielded a melting point of 155 to 158 °C. `O=Cc1cc(F)c(NC(=O)C(F)(F)F)c(F)c1` gave a melting point of 122 to 125 °C. Compound `CCOC(=O)c1cn(-c2nc(NC)c(F)cc2F)c2c(Cl)c(F)c(F)cc2c1=O` has a melting point of 207 to 209 °C. Compound `NCCCCCC(=O)NC(CCCCN)C(=O)N(NC(=O)OCc1ccccc1)C(=O)OCc1ccccc1` (configuration not stated) has a melting point of 167 to 168 °C. In the case of `CCOC(=O)Cn1c(=O)n(Cc2ccc(Br)cc2F)c(=O)c2cc(Cl)c(Cl)cc21`, the melting point was 220 to 221 °C. With `CC(=O)OC(C)(C(=O)O)c1ccc(-c2ccccc2)c(F)c1` (configuration not stated) the melting point was 125 to 127 °C. `CCNC(=O)C(c1ccccc1)c1ccccc1` gave a melting point of 87 °C. Compound `c1ccc(COc2ccc3ccc(OCc4ccccc4)cc3c2)cc1` has a melting point of 161 °C. In the case of `CC(C)C1(C)C(=O)NC2(O)c3ncccc3C(=O)N21` (configuration not stated), the melting point was 151 to 153 °C. Compound `CC(S)=C(C#N)C(=O)Nc1ccc(C(F)(F)F)cc1` has a melting point of 183 to 184 °C. `O=C(C=Cc1cccs1)C=Cc1cccs1` gave a melting point of 115 to 117 °C. For `Cc1ccc(Cc2cnc(NCCCCc3ncc(Cl)cc3C)[nH]c2=O)cn1`, the melting point was 140 to 141 °C. Compound `CSC[C@H](NCc1cc(Br)ccc1N)C(=O)O` has a melting point of 228 °C. For `N#CC=Cc1ccc(C(=O)O)cc1`, the melting point was 281 °C. `CCOC(=O)C(C)(C)Oc1ccc(OCCc2nc(-c3ccc(Br)cc3)oc2C)cc1` gave a melting point of 78 to 79 °C. `Cc1nc(-c2ccc(OCc3cccnc3)cc2)no1` showed a melting point of 55 to 56 °C. Work on `O=S(=O)(c1ccc(F)c(C(F)(F)F)c1)N1CCC(Nc2nc(Nc3cccc(C(F)(F)F)c3)nc(OCC(F)(F)F)n2)CC1` yielded a melting point of 250 to 252 °C. In the case of `CCn1nc(-c2ccccc2)c(C(C)=O)c(Nc2cccc(Cl)c2)c1=O`, the melting point was 189 to 191 °C. Compound `Cc1ccc2c(cc(C(=O)O)n2CCCC#N)c1C` has a melting point of 175 °C. `CC(=O)Nc1ccc(OC(=O)CCl)cc1` gave a melting point of 186 °C. In the case of `COc1cc(C(=O)O)cc(CCc2ccccc2)c1C(=O)O`, the melting point was 242 to 244 °C. `COc1ccc(C2(C)C(=O)c3c(Cl)cc(Cl)cc3N(Cc3ccccc3)C2=O)cc1` (configuration not stated) gave a melting point of 159 to 160 °C. With `COc1cccc(-c2csc(N3CCN(C(=O)Nc4onc(C)c4C)CC3)n2)c1` the melting point was 158 to 159 °C. Compound `O=C(Nc1cc(C(=O)O)cc(C(=O)O)c1)Oc1ccccc1` has a melting point of over 300 °C. With `CC1(C)COc2ccc(C(=O)O)cc21` the melting point was 171 to 173 °C. Work on `Fc1ccccc1-c1nc2cccnc2o1` yielded a melting point of 119 to 120 °C. `CC(=O)N(c1cc(F)c(C#N)cc1F)c1nnnn1-c1ccc(OC(F)(F)F)cc1` showed a melting point of 108 to 110 °C. `CN(C)C=Nc1c(Cl)cc(N=Cc2cccc(F)c2)cc1Cl` gave a melting point of 95 to 96 °C. For `CC(C)Cc1nn(C)c(=O)c2cn(Cc3cccc4ccccc34)nc12`, the melting point was 166 to 167 °C. Work on `COc1ccc2c(c1OC)CC(c1ccccc1)CC2(O)CN` (configuration not stated) yielded a melting point of 175 to 176 °C.
